Test results as given in US9790215B2 (FLATLEY DISCOVERY LAB, LLC, priority 2013, dated 2017).

biological target: T1, human ΔF508-CFTR (Homo sapiens, UniProt P13569, DEL508-508); assay: CFTR-YFP High Throughput Assay (YFP halide flux in FRT cells); format: cell-based; details: FRT cells expressing human ΔF508-CFTR and YFP; Emax normalized to the positive control
T1 construct: expressed in transfected cells
Procedure, shortened: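 FRT cells stably co-expressing human ΔF508-CFTR and halide-sensitive YFP-H148Q/I152L were treated with compound […] for 24–26 h at 37 °C (corrector mode), washed, then stimulated with 20 μM forskolin plus 30 μM potentiator P3 for 60–120 min at room temperature. Iodide-induced YFP quench (ex 500/em 540 nm) rates came from least-squares fitting.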

T1 sequence (P13569 with tags, fused parts or gaps DEL508-508): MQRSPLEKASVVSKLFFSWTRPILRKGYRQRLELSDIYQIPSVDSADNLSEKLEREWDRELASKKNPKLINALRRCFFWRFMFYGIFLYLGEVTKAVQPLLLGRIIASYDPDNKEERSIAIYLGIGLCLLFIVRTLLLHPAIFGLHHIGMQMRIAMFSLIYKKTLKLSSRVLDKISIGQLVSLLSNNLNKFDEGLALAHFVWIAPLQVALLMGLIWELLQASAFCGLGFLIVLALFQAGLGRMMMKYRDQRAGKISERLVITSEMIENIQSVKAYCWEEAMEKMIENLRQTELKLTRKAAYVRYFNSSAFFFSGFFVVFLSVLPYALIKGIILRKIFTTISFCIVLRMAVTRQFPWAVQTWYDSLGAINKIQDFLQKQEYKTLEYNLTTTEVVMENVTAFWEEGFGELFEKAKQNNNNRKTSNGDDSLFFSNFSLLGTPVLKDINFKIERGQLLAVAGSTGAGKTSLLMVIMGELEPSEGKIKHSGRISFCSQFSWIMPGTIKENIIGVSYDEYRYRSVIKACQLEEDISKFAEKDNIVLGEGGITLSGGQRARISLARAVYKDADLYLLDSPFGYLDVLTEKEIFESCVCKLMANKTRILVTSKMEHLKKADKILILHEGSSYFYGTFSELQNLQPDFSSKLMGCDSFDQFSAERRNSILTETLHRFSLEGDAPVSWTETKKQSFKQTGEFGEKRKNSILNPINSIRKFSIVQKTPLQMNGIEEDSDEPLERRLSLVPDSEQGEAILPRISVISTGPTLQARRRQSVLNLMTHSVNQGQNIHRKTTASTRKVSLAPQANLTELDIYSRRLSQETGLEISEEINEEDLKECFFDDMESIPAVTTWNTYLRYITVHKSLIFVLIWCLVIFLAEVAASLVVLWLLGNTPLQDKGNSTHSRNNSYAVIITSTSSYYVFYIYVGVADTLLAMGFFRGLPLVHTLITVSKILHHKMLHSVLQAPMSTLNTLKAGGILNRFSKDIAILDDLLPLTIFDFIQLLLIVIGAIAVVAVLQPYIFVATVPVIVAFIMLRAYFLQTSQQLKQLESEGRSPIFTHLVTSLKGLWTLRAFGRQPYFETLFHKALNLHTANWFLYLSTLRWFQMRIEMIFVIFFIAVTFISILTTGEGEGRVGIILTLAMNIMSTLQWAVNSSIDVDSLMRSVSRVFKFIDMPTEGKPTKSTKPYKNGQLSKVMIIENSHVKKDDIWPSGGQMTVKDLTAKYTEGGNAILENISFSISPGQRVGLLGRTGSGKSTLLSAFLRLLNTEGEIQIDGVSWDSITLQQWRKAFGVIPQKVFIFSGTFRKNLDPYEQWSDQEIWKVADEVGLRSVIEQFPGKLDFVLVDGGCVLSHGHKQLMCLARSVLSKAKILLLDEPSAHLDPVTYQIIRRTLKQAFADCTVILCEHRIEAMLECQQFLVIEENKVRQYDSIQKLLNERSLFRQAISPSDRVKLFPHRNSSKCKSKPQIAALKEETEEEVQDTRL

For `CCN(C(=O)c1nn(-c2ccccc2F)c(=O)c2c1c1ccccc1n2C)c1ccccc1` [Example 127, N-ethyl-3-(2-fluorophenyl)-5-methyl-4-oxo-N-phenyl-4,5-dihydro-3H-pyridazino[4,5-b]indole-1-carboxamide], the “% Efficacy (Emax normalized to the positive control)” value was “+++ (EMAX > 80%)”.

same assay, conditions: FRT cells expressing human ΔF508-CFTR and YFP; forskolin stimulated

Going from `Cc1ccc(-n2nc(C(=O)N3CCN(Cc4ccccc4)CC3)c3c4ccccc4n(C)c3c2=O)cc1` [Example 112, 1-(4-benzylpiperazine-1-carbonyl)-5-methyl-3-(p-tolyl)-3H-pyridazino[4,5-b]indol-4(5H)-one] to `Cc1ccc(-n2nc(C(=O)N(CC(=O)O)c3ccccc3)c3c4ccccc4n(C)c3c2=O)cc1` [Example 114, 2-(5-methyl-4-oxo-N-phenyl-3-(p-tolyl)-4,5-dihydro-3H-pyridazino[4,5-b]indole-1-carboxamido) acetic acid], the EC50 rises from less than 10 µM to greater than 20 µM.

First: CCN(C(=O)c1nn(-c2ccccc2)c(=O)c2c1c1ccccc1n2C)c1ncccn1 [Example 113, N-ethyl-5-methyl-4-oxo-3-phenyl-N-(pyrimidin-2-yl)-4,5-dihydro-3H-pyridazino[4,5-b]indole-1-carboxamide]
Second: CCN(C(=O)c1nn(-c2ncccn2)c(=O)c2c1c1ccccc1n2C)c1ccccc1 [Example 122, N-ethyl-5-methyl-4-oxo-N-phenyl-3-(pyrimidin-2-yl)-4,5-dihydro-3H-pyridazino[4,5-b]indole-1-carboxamide]
The EC50 of the first is higher: greater than 20 µM for the first, 10 to 20 µM for the second.

First: CCN(C(=O)c1nn(-c2ccccc2)c(=O)c2c1c1ccccc1n2C)c1ncnc2c1cnn2C [Example 115, N-ethyl-5-methyl-N-(1-methyl-1H-pyrazolo[3,4-d]pyrimidin-4-yl)-4-oxo-3-phenyl-4,5-dihydro-3H-pyridazino[4,5-b]indole-1-carboxamide]
Second: CCN(C(=O)c1nn(-c2ccccc2)c(=O)c2c1c1ccccc1n2C)c1cccc(F)c1 [Example 126, N-ethyl-N-(3-fluorophenyl)-5-methyl-4-oxo-3-phenyl-4,5-dihydro-3H-pyridazino[4,5-b]indole-1-carboxamide]
The EC50 of the first is higher: 10 to 20 µM for the first, less than 10 µM for the second. The second is the more potent here.

`CCN(C(=O)c1nn(-c2ccccn2)c(=O)c2c1c1ccccc1n2C)c1ccccc1` [Example 118, N-ethyl-5-methyl-4-oxo-N-phenyl-3-(pyridin-2-yl)-4,5-dihydro-3H-pyridazino[4,5-b]indole-1-carboxamide] and `CCN(C(=O)c1nn(-c2ccc(C)cn2)c(=O)c2c1c1ccccc1n2C)c1ccccc1` [Example 131, N-ethyl-5-methyl-3-(5-methylpyridin-2-yl)-4-oxo-N-phenyl-4,5-dihydro-3H-pyridazino[4,5-b]indole-1-carboxamide] cannot be ordered by EC50: less than 10 µM for the first, less than 10 µM for the second.

`CCN(C(=O)c1nn(-c2cccnc2)c(=O)c2c1c1ccccc1n2C)c1ccccc1` [Example 119] and `CCN(C(=O)c1nn(-c2ccncc2)c(=O)c2c1c1ccccc1n2C)c1ccccc1` [Example 120, N-ethyl-5-methyl-4-oxo-N-phenyl-3-(pyridin-4-yl)-4,5-dihydro-3H-pyridazino[4,5-b]indole-1-carboxamide] cannot be ordered by EC50: less than 10 µM for the first, less than 10 µM for the second.

First: CCN(C(=O)c1nn(-c2nccs2)c(=O)c2c1c1ccccc1n2C)c1ccccc1 [Example 121, N-ethyl-5-methyl-4-oxo-N-phenyl-3-(thiazol-2-yl)-4,5-dihydro-3H-pyridazino[4,5-b]indole-1-carboxamide]
Second: CCN(C(=O)c1nn(-c2nc3ccccc3s2)c(=O)c2c1c1ccccc1n2C)c1ccccc1 [Example 123, 3-(benzo[d]thiazol-2-yl)-N-ethyl-5-methyl-4-oxo-N-phenyl-4,5-dihydro-3H-pyridazino[4,5-b]indole-1-carboxamide]
The EC50 of the first is lower: less than 10 µM for the first, 10 to 20 µM for the second.

Going from `CCN(C(=O)c1nn(-c2nc3ccccc3n2C)c(=O)c2c1c1ccccc1n2C)c1ccccc1` [Example 124, N-ethyl-5-methyl-3-(1-methyl-1H-benzo[d]imidazol-2-yl)-4-oxo-N-phenyl-4,5-dihydro-3H-pyridazino[4,5-b]indole-1-carboxamide] to `CCN(C(=O)c1nn(-c2cnc3ccccc3c2)c(=O)c2c1c1ccccc1n2C)c1ccccc1` [Example 128, N-ethyl-5-methyl-4-oxo-N-phenyl-3-(quinolin-3-yl)-4,5-dihydro-3H-pyridazino[4,5-b]indole-1-carboxamide], the EC50 falls from greater than 20 µM to less than 10 µM. The second is the more potent here.

`CCN(C(=O)c1nn(-c2ccccc2F)c(=O)c2c1c1ccccc1n2C)c1ccccc1` [Example 125, N-ethyl-3-(2-fluorophenyl)-5-methyl-4-oxo-N-phenyl-4,5-dihydro-3H-pyridazino[4,5-b]indole-1-carboxamide] and `CCN(C(=O)c1nn(-c2ccc(Cl)cc2)c(=O)c2c1c1ccccc1n2C)c1ccccc1` [Example 129, 3-(4-chlorophenyl)-N-ethyl-5-methyl-4-oxo-N-phenyl-4,5-dihydro-3H-pyridazino[4,5-b]indole-1-carboxamide] cannot be ordered by EC50: less than 10 µM for the first, less than 10 µM for the second.

Compared with `CCN(C(=O)c1nn(-c2ccccc2F)c(=O)c2c1c1ccccc1n2C)c1ccccc1` [Example 127, N-ethyl-3-(2-fluorophenyl)-5-methyl-4-oxo-N-phenyl-4,5-dihydro-3H-pyridazino[4,5-b]indole-1-carboxamide], `CCN(C(=O)c1nn(Cc2ccccc2)c(=O)c2c1c1ccccc1n2C)c1ccccc1` [Example 136, 3-benzyl-N-ethyl-5-methyl-4-oxo-N-phenyl-4,5-dihydro-3H-pyridazino[4,5-b]indole-1-carboxamide] is higher in EC50: less than 10 µM for the first, greater than 20 µM for the second. The first is the more potent here.

`CCN(C(=O)c1nn(-c2ccc(OC)cc2)c(=O)c2c1c1ccccc1n2C)c1ccccc1` [Example 130, N-ethyl-3-(4-methoxyphenyl)-5-methyl-4-oxo-N-phenyl-4,5-dihydro-3H-pyridazino[4,5-b]indole-1-carboxamide] and `CCN(C(=O)c1nn(-c2ccccc2)c(=O)c2c1c1ccccc1n2C)c1cccc(Cl)c1` [Example 132, N-(3-chlorophenyl)-N-ethyl-5-methyl-4-oxo-3-phenyl-4,5-dihydro-3H-pyridazino[4,5-b]indole-1-carboxamide] cannot be ordered by EC50: less than 10 µM for the first, less than 10 µM for the second.

`CCN(C(=O)c1nn(-c2ccc(C)cc2)c(=O)c2c1c1ccccc1n2C)c1ccc2c(c1)OC(F)(F)O2` [Example 133, N-(2,2-difluorobenzo[d][1,3]dioxol-5-yl)-N-ethyl-5-methyl-4-oxo-3-(p-tolyl)-4,5-dihydro-3H-pyridazino[4,5-b]indole-1-carboxamide] and `CCN(C(=O)c1nn(-c2ccc(C)cc2)c(=O)c2c1c1ccccc1n2C)c1cc(Cl)ccc1C(=O)O` [Example 134, 4-chloro-2-(N-ethyl-5-methyl-4-oxo-3-(p-tolyl)-4,5-dihydro-3H-pyridazino[4,5-b]indole-1-carboxamido)benzoic acid] cannot be ordered by EC50: less than 10 µM for the first, less than 10 µM for the second.

`Cc1ccc(-n2nc(C(=O)Nc3cc(Cl)ccc3C(=O)O)c3c4ccccc4n(C)c3c2=O)cc1` [Example 135, 4-chloro-2-(5-methyl-4-oxo-3-(p-tolyl)-4,5-dihydro-3H-pyridazino[4,5-b]indole-1-carboxamido)benzoic acid] and `CCN(C(=O)c1nn(-c2ccc(C)cc2)c(=O)c2[nH]c3ccccc3c12)c1cccc(Cl)c1` [Example 148, N-(3-chlorophenyl)-N-ethyl-4-oxo-3-(p-tolyl)-4,5-dihydro-3H-pyridazino[4,5-b]indole-1-carboxamide] cannot be ordered by EC50: less than 10 µM for the first, less than 10 µM for the second.

`CCN(C(=O)c1nn(C2CCN(Cc3ccccc3)CC2)c(=O)c2c1c1ccccc1n2C)c1ccccc1` [Example 137, 3-(1-benzylpiperidin-4-yl)-N-ethyl-5-methyl-4-oxo-N-phenyl-4,5-dihydro-3H-pyridazino[4,5-b]indole-1-carboxamide] and `CCN(C(=O)c1nn(C2CCCCC2)c(=O)c2c1c1ccccc1n2C)c1cccc(Cl)c1` [Example 143, N-(3-chlorophenyl)-3-cyclohexyl-N-ethyl-5-methyl-4-oxo-4,5-dihydro-3H-pyridazino[4,5-b]indole-1-carboxamide] cannot be ordered by EC50: less than 10 µM for the first, less than 10 µM for the second.

`CCN(C(=O)c1nn(C(C)C)c(=O)c2c1c1ccccc1n2C)c1cccc(Cl)c1` [Example 140, N-(3-chlorophenyl)-N-ethyl-3-isopropyl-5-methyl-4-oxo-4,5-dihydro-3H-pyridazino[4,5-b]indole-1-carboxamide] and `CCN(C(=O)c1nn(C(C)C)c(=O)c2c1c1ccccc1n2C)c1cc(Cl)ccc1C#N` [Example 144, N-(5-chloro-2-cyanophenyl)-N-ethyl-3-isopropyl-5-methyl-4-oxo-4,5-dihydro-3H-pyridazino[4,5-b]indole-1-carboxamide] cannot be ordered by EC50: less than 10 µM for the first, less than 10 µM for the second.

`CCN(C(=O)Cn1nc(C(=O)N(CC)c2cccc(Cl)c2)c2c3ccccc3n(C)c2c1=O)c1ccc2c(c1)OC(F)(F)O2` [Example 141, N-(3-chlorophenyl)-3-(2-((2,2-difluorobenzo[d][1,3]dioxol-5-yl)(ethyl)amino)-2-oxoethyl)-N-ethyl-5-methyl-4-oxo-4,5-dihydro-3H-pyridazino[4,5-b]indole-1-carboxamide] and `CCN(CC)C(=O)c1nn(CC(=O)N(CC)c2ccc3c(c2)OC(F)(F)O3)c(=O)c2c1c1ccccc1n2C` [Example 145, 3-(2-((2,2-difluorobenzo[d][1,3]dioxol-5-yl)(ethyl)amino)-2-oxoethyl)-N,N-diethyl-5-methyl-4-oxo-4,5-dihydro-3H-pyridazino[4,5-b] indole-1-carboxamide] cannot be ordered by EC50: less than 10 µM for the first, less than 10 µM for the second.

First: CCc1ccc(N(CC)C(=O)Cn2nc(C(=O)N(CC)c3cccc(Cl)c3)c3c4ccccc4n(C)c3c2=O)cc1 [Example 142, N-(3-chlorophenyl)-N-ethyl-3-(2-(ethyl(4-ethylphenyl)amino)-2-oxoethyl)-5-methyl-4-oxo-4,5-dihydro-3H-pyridazino[4,5-b]indole-1-carboxamide]
Second: CCN(C(=O)c1nn(-c2ccc(C)cc2)c(=O)c2c1c1ccccc1n2C1CCC1)c1ccccc1 [Example 146, 5-cyclobutyl-N-ethyl-4-oxo-N-phenyl-3-p-tolyl-4,5-dihydro-3H-pyridazino[4,5-b]indole-1-carboxamide]
The EC50 of the first is lower: less than 10 µM for the first, 10 to 20 µM for the second.

Work on `CCN(C(=O)c1nn(-c2ccc(C)cc2)c(=O)c2[nH]c3ccccc3c12)c1ccccc1` [Example 147, N-Ethyl-4-oxo-N-phenyl-3-p-tolyl-4,5-dihydro-3H-pyridazino[4,5-b]indole-1-carboxamide] yielded an EC50 of less than 10 µM.
